Experimental data from ChEMBL document CHEMBL5209573, “Fluo-8 based assay for SLC24A2 using HEK293 SLC24A2 JumpIn OE cells” (2022).

Biological target: Sodium/potassium/calcium exchanger 2 (Homo sapiens, UniProt Q9UI40)
Experiment: Substrate uptake by the Sodium/Potassium/Calcium Exchanger 2 (NCKX2, SLC24A2) as assessed by Screen Questtrade mark Fluo-8 NW calcium assay kit in HEK-293 JumpIN-SLC24A2 cells (PubChem AID: 1794815)
Assay type: functional, cell-based, HEK293

Sodium/potassium/calcium exchanger 2, sequence (Q9UI40 whole entry): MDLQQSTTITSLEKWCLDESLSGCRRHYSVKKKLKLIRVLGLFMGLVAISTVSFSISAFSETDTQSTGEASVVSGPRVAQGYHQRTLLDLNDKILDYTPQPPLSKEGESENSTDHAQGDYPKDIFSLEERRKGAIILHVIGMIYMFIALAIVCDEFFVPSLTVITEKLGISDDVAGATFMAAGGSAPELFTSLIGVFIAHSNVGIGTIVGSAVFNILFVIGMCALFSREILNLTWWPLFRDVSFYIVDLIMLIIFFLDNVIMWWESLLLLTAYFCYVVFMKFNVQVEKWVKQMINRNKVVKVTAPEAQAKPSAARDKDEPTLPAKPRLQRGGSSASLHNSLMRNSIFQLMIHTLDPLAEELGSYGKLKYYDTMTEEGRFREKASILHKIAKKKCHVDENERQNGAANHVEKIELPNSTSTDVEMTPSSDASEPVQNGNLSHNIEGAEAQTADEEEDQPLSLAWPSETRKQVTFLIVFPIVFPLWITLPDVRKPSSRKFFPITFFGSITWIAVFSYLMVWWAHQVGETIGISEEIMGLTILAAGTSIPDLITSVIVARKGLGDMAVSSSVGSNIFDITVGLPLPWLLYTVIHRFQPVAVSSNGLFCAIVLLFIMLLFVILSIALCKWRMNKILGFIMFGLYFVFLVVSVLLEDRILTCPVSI

## [Cl-].[K+] [POTASSIUM CHLORIDE]
  EC50: 280 mM
